Residues, ends and D or L forms follow the SMILES beside them.
Key:
[1] = target: proteinase K (Parengyodontium album, UniProt P06873); assay: Digestion of self-assembled structures by proteinase K, SHG image time series; format: in vitro ADME; conditions: no polymer shell, aqueous solution with proteinase K, 0 to 60 minutes
Method: The digestion 201 is facilitated by a proteinase K.
The proteinase K digests the self-assembled structure into single phenylalanines.
In FIG. 6 the corresponding SHG images of a digestion 201 of self-assembled structures of triphenylalanines 41 suspended in aqueous solution with proteinase K is shown. Here, image A) has been taken at time 0 minutes, image B) at 20 minutes, C) at 40 minutes and image D) after 60 minutes after adding proteinase K to the solution.

[2] = Stability of SHG signal with regard to dilution; format: physicochemical; conditions: 10 mg/ml (versus 100 mg/ml)
Method: Panel A: LIVAGK peptides' SHG signal at a concentration of 100 mg/ml. Panel B: LIVAGK peptides' SHG signal at a concentration of 10 mg/ml.

[3] = Stability of SHG signal with regard to pH of the solvent; format: physicochemical
Method: The disassembly occurs within minutes (˜5 minutes) after incubation in pH 4.
Panel A: SHG signal after incubation of the nanoparticles for 72 hours in a buffer at pH 7. Same as in panel A, but at pH 6. Same as in panel A, but at pH 5. Panel D: same as in panel A, but at pH 4.
In FIG. 16a, the effect of different pH values on the SHG signal intensity are shown as a diagram. The nanoparticles were incubated at different pH values for 72 hours (n=5). Representative images showing SHG signal intensity after the nanoparticles were incubated in buffers at FIG. 16b, pH 7, FIG. 16c, pH 6, FIG. 16d, pH 5, and FIG. 16e, pH 4. Scalebar, 10 μm. Mean±s.d. n.s., not significant (Ordinary one-way ANOVA with Tukey's multiple comparisons).

Sequence of proteinase K (P06873 106-384): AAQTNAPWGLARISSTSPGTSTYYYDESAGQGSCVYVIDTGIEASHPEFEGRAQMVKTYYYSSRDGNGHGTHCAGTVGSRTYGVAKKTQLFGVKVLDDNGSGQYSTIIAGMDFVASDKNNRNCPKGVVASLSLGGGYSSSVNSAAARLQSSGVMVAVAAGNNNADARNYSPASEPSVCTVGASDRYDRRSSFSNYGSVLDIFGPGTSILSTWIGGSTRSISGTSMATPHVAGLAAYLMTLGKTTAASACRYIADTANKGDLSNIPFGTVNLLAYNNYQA

N[C@@H](Cc1ccccc1)C(=O)N[C@@H](Cc1ccccc1)C(=O)N[C@@H](Cc1ccccc1)C(=O)O [triphenylalanine, Phe-Phe-Phe] (H-Phe-Phe-Phe-OH; N-terminus and C-terminus assumed)
SHG signal during proteinase K digestion [1]: decreasing over the course of time

LIVAGK
SHG signal on dilution [2]: no SHG signal can be observed | assembly state / SHG signal at pH 4 ([3]; pH 4, 100 mg/ml): disassemble | time to disassembly after incubation in pH 4 ([3]; pH 4, 100 mg/ml): ~5 minutes | assembly state / SHG signal at pH 7 ([3]; pH 7, 100 mg/ml): still assembled

— patent US20250332293A1, “METHOD FOR MANUFACTURING BIOCOMPATIBLE NANOPARTICLES WITH A PEPTIDE CORE EXHIBITING SECOND- AND THIRD-HARMONIC SIGNAL GENERATION” (MAX-PLANCK-GESELLSCHAFT ZUR FÖRDERUNG DER WISSENSCHAFTEN E. …, priority 2016, published 2025)
